From patent publication US7671054B1, “Reverse-turn mimetics and method relating thereto” (Choongwae Pharma Corporation, priority 2001, dated 2010)
Like-named read-outs stand apart in the source and are kept apart here.

Key:
Format in all cases: cell-based
HCT116 cells = assay: Growth inhibition assay (MTS); conditions: Homo sapiens, Table 5, HCT116 cells, 48 hours treatment, MTS, read-out: Growth Inhibition (GI50, uM) HCT116
Experimental: (§1) SW480 or HCT116 cells were placed into 96 well microplate (10^4cells/well) and incubated for 24 hours at 37° C. 20 μl of [3-(4,5-dimethylthiazol-2-yl)-5-(3-carboxyphenyl)-2-(4-sulfophenyl)-2H-tetrazolium, inner salt](MTS) solution (Promega) was added into each well and the absorbance after 2 hour incubation at 37° C. (negative control) was read. And then, the cells were treated with TCF4 compound at various concentrations for 48 hours. 20 μl of MTS solution (Promega) was added into each well and incubated for 2 hour at 37° C. Cell viability was measured by reading the absorbance at 490 nm using a microplate reader (Molecular device) and cytotoxicity of a compound at each concentration was calculated.
as §1, with “a test” for “TCF4”

SW480 cells = assay: Growth inhibition assay (MTS); conditions: Homo sapiens, Table 5, SW480 cells, 48 hours treatment, MTS, read-out: Growth Inhibition (GI50, uM) SW480
Experimental: as §1
as §1, with “a test” for “TCF4”

[1] = tested on: TCF4/β-catenin transcription (TOPFlash) in SW480 cells; assay: Reporter gene assay (TOPFlash luciferase); conditions: Homo sapiens, SW480, Table 4; Reporter gene assay as described in Example 6; read-out: IC50
In short: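 SW480 cells transiently co-transfected with TOPFlash and pRL-null (4:1 µg) using Superfect, then reseeded at 3×10^4 cells/well and incubated overnight at 37 °C. Compound treatment lasted 24 h before luciferase read-out.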

GI50 (HCT116 cells; HCT-116, 48 h) [µM]	GI50 (SW480 cells; SW480, 48 h) [µM]	IC50 [1] [µM]	Structure (SMILES)	other results
2.8	3 ± 0.1	–	CN1CC(=O)N2[C@@H](Cc3ccc(O)cc3)C(=O)N(Cc3cccc4cnn(Cc5ccccc5[N+](=O)[O-])c34)C[C@@H]2N1C(=O)NCc1ccccc1 [Compound 51]	–
6.5 ± 0.3	6.2 ± 0.8	–	C[C@H](c1ccc(Cl)c2cccnc12)N1CC2N(C(=O)CN(C)N2C(=O)NCc2ccccc2)[C@@H](Cc2ccc(O)cc2)C1=O (stereo partly drawn) [Compound 168]	–
2.8 ± 0.4	4.5 ± 0.3	–	C#CCN1CC(=O)N2[C@@H](Cc3ccc(O)cc3)C(=O)N(Cc3ccc(C)c(N4CCOCC4)c3)C[C@@H]2N1C(=O)NCc1ccccc1 [Compound 106]	–
1.7 ± 0.1	1.6 ± 0.5	–	C=CCN1CC(=O)N2C(Cc3ccc(O)cc3)C(=O)N(Cc3ccc(F)cc3F)CC2N1C(=O)NCc1ccccc1 (stereo not drawn) [Compound 140]	–
1.1 ± 0.1	1 ± 0.1	–	C=CCN1CC(=O)N2[C@@H](Cc3ccc(O)cc3)C(=O)N(Cc3cccc4scnc34)C[C@@H]2N1C(=O)NCc1ccc(Cl)c(Cl)c1 [Compound 180]	–
0.2 ± 0.02	0.2 ± 0.02	–	C=CCN1CC(=O)N2[C@@H](Cc3ccc(O)cc3)C(=O)N(Cc3ccc(F)c4scnc34)C[C@@H]2N1C(=O)NCc1ccccc1 [Compound 194]	–
1.7 ± 0.1	1.7 ± 0.2	–	C=CCN1CC(=O)N2[C@@H](Cc3ccc(O)cc3)C(=O)N(Cc3cccc(OC(F)(F)F)c3)C[C@@H]2N1C(=O)NCc1ccccc1 [Compound 176]	–
5.47	3.57	–	Cc1cc(C)c(N(C)C)c(CN2C[C@H]3N(C(=O)CN(C)N3C(=O)NCc3ccccc3)[C@@H](Cc3ccc(O)cc3)C2=O)c1 [Compound 28]	–
0.7 ± 0.1	0.7 ± 0.4	–	C=CCN1CC(=O)N2[C@@H](Cc3ccc(O)cc3)C(=O)N(Cc3cccc(OC)c3OC)C[C@@H]2N1C(=O)NCc1ccccc1 [Compound 184]	–
1.7 ± 0.3	–	–	C=CCN1CC(=O)N2[C@@H](Cc3ccc(O)cc3)C(=O)N(Cc3cccc(N4CCCC4=O)c3)C[C@@H]2N1C(=O)NCc1ccccc1 [Compound 123]	–
9.5 ± 1.1	10 ± 1.3	–	C=CCN1CC(=O)N2[C@@H](Cc3ccc(O)cc3)C(=O)N(Cc3ccc4c(c3)OCCN4C)C[C@@H]2N1C(=O)NCc1ccccc1 [Compound 119]	–
8.6 ± 0.8	8.9 ± 0.8	–	CN1CC(=O)N2[C@@H](Cc3ccc(O)cc3)C(=O)N(Cc3ccc(F)cc3F)C[C@@H]2N1C(=O)NCc1ccc(F)cc1 [Compound 170]	–
1.17	2.66	–	C[C@H](c1ccccc1)N1C[C@H]2N(C(=O)CN(C)N2C(=O)NCc2ccccc2)[C@@H](Cc2ccc(O)cc2)C1=O [Compound 19]	–
7.2 ± 0.7	7.4 ± 0.6	–	CN1CC(=O)N2[C@@H](Cc3ccc(O)cc3)C(=O)N(Cc3ccc4cccnc4c3)C[C@@H]2N1C(=O)NCc1ccccc1 [Compound 70]	–
3.7 ± 0.6	6.8 ± 1.4	–	C#CCN1CC(=O)N2[C@@H](Cc3ccc(O)cc3)C(=O)N(Cc3ccc4ncsc4c3)C[C@@H]2N1C(=O)NCc1ccccc1 [Compound 113]	–
2.9 ± 0.4	3 ± 0.3	–	C=CCN1CC(=O)N2[C@@H](Cc3ccc(O)cc3)C(=O)N(Cc3cccc(N(C)C(=O)CCCCC)c3)C[C@@H]2N1C(=O)NCc1ccccc1 [Compound 164]	–
0.3 ± 0.02	0.6 ± 0.1	–	C=CCN1CC(=O)N2[C@@H](Cc3ccc(O)cc3)C(=O)N(Cc3cccc4c3N(C)CCO4)C[C@@H]2N1C(=O)NCc1ccccc1 [Compound 117]	–
4.4 ± 0.5	7 ± 1.1	–	CCCN1CC(=O)N2[C@@H](Cc3ccc(O)cc3)C(=O)N(Cc3ccc(Cl)c(N(C)C)c3)C[C@@H]2N1C(=O)NCc1ccccc1 [Compound 98]	–
1.1 ± 0.1	1.9 ± 0.4	–	CCN1CC(=O)N2[C@@H](Cc3ccc(O)cc3)C(=O)N(Cc3cccc4cccnc34)C[C@@H]2N1C(=O)NCc1ccccc1 [Compound 93]	–
2.2 ± 1.2	2.5 ± 0.1	–	C=CCN1CC(=O)N2[C@@H](Cc3ccc(O)cc3)C(=O)N(Cc3cc(F)c(F)cc3N(C)C)C[C@@H]2N1C(=O)NCc1ccccc1 [Compound 132]	–
21 ± 2.6	35 ± 11	–	C=CCOC(=O)NCCCC[C@H]1C(=O)N(Cc2ccc(Cl)c(Cl)c2)C[C@H]2N1C(=O)CN(C)N2C(=O)NCc1ccccc1 [Compound 141]	–
14.7 ± 2.6	34.4 ± 9.6	–	CCN(CC)c1cc(F)ccc1[C@H](C)N1C[C@H]2N(C(=O)CN(C)N2C(=O)NCc2ccccc2)[C@@H](Cc2ccc(O)cc2)C1=O [Compound 41]	–

GI50 (HCT116 cells; HCT-116, 48 h) [µM]	GI50 (SW480 cells; SW480, 48 h) [µM]	IC50 [1] [µM]	Structure (SMILES)	other results
0.7 ± 0.1	1 ± 0.05	–	C=CCN1CC(=O)N2[C@@H](Cc3ccc(O)cc3)C(=O)N(Cc3cccc(N4CCOCC4)c3)C[C@@H]2N1C(=O)NCc1ccccc1 [Compound 99]	–
–	–	–	C=CCN1CC(=O)N2[C@@H](Cc3ccc(OP(=O)(O)O)cc3)C(=O)N(Cc3ccc4c(c3)OCCO4)C[C@@H]2N1C(=O)NCc1ccccc1 [Compound 182]	GI50 (HCT116 cells; HCT-116): 0.8 ± 0.1 µM; GI50 (SW480 cells): 1 ± 0.1 µM
1.3 ± 0.1	1.1 ± 0.1	–	C=CCN1CC(=O)N2[C@@H](Cc3ccc(O)cc3)C(=O)N(Cc3cccc4sc(-c5ccc(O)cc5)nc34)C[C@@H]2N1C(=O)NCc1ccccc1 [Compound 192]	–
–	–	–	C#CCN1CC(=O)N2[C@@H](Cc3ccc(O)cc3)C(=O)N(Cc3ccc(F)cc3F)[C@@H](C)[C@@H]2N1C(=O)NCc1ccccc1 [Compound 84]	GI50 (HCT116 cells; HCT-116): 9.9 ± 1 µM; GI50 (SW480 cells): 8.4 ± 1.1 µM
3.9 ± 0.7	4 ± 0.4	–	CCCN1CC(=O)N2[C@@H](Cc3ccc(O)cc3)C(=O)N(Cc3ccccc3)C[C@@H]2N1C(=O)NCc1ccccc1 [Compound 138]	–
1.8 ± 0.1	–	–	C#CCN1CC(=O)N2[C@@H](Cc3ccc(O)cc3)C(=O)N(Cc3cc(F)c(F)cc3N(C)C)C[C@@H]2N1C(=O)NCc1ccccc1 [Compound 81]	–
–	–	6.5 ± 0.7	CN1CC(=O)N2[C@@H](Cc3ccc(O)cc3)C(=O)N(Cc3cccc(N4CCCCC4)c3)C[C@@H]2N1C(=O)NCc1ccccc1 [Compound 71]	–
–	–	1.1 ± 0.1	C=CCN1CC(=O)N2[C@@H](Cc3ccc(O)cc3)C(=O)N(Cc3ccc(Cl)c(N4CCOCC4)c3)C[C@@H]2N1C(=O)NCc1ccccc1 [Compound 139]	–
–	–	4 ± 0.4	CC(C)N1CC(=O)N2[C@@H](Cc3ccc(O)cc3)C(=O)N(Cc3ccc(F)cc3F)C[C@@H]2N1C(=O)NCc1ccccc1 [Compound 176]	–
–	–	1.9 ± 0.1	C=CCN1CC(=O)N2[C@@H](Cc3ccc(O)cc3)C(=O)N(Cc3cccc4c3OCCO4)C[C@@H]2N1C(=O)NCc1ccc(Cl)c(Cl)c1 [Compound 204]	–
–	–	27.4 ± 2.8	C[C@@H](c1ccc(Cl)c2cccnc12)N1CC2N(C(=O)CN(C)N2C(=O)NCc2ccccc2)[C@@H](Cc2ccc(O)cc2)C1=O (stereo partly drawn) [Compound 196]	–
–	–	9 ± 1.5	CN(C1CC1)C1CC=CC=C1CN1C[C@H]2N(C(=O)CN(C)N2C(=O)NCc2ccccc2)[C@@H](Cc2ccc(O)cc2)C1=O (stereo partly drawn) [Compound 53]	–
–	–	28 ± 2.9	C=CCN1CC(=O)N2[C@@H](Cc3ccc(O)cc3)C(=O)N(Cc3ccc4[nH]nnc4c3)C[C@@H]2N1C(=O)NCc1ccccc1 [Compound 136]	–
–	–	1.1 ± 0.2	C=CCN1CC(=O)N2[C@@H](Cc3ccc(O)cc3)C(=O)N(Cc3ccccc3)C[C@@H]2N1C(=O)NCc1ccccc1 [Compound 164]	–
–	–	23.4 ± 1.9	C=CCN1CC(=O)N2[C@@H](Cc3ccc(O)cc3)C(=O)N([C@@H](C)c3ccc(Cl)c4cccnc34)C[C@@H]2N1C(=O)NCc1ccccc1 [Compound 185]	–
–	–	3.8 ± 2.7	C=CCN1CC(=O)N2[C@@H](Cc3ccc(O)cc3)C(=O)N(Cc3ccc(Cl)c4scnc34)C[C@@H]2N1C(=O)NCc1ccccc1 [Compound 222]	–
–	–	2.2 ± 0.2	CN1CC(=O)N2[C@@H](Cc3ccc(O)cc3)C(=O)N(Cc3cccc4c3cnn4Cc3ccccc3N)C[C@@H]2N1C(=O)NCc1ccccc1 [Compound 88]	–
–	–	1.6 ± 0.1	C#CCN1CC(=O)N2[C@@H](Cc3ccc(O)cc3)C(=O)N(Cc3cc(F)c(F)cc3N(C)C)C[C@@H]2N1C(=O)NCc1ccccc1 [Compound 108]	–
–	–	62 ± 17	C#CCNC(=O)N1[C@H]2CN(Cc3cccc4ccccc34)C(=O)[C@H](Cc3ccc(O)cc3)N2C(=O)CN1C [Compound 102]	–
–	–	3.5 ± 0.8	C=CCN1CC(=O)N2[C@@H](Cc3ccc(O)cc3)C(=O)N(Cc3cccc4c3OCC4)C[C@@H]2N1C(=O)NCc1ccccc1 [Compound 205]	–
–	–	1.3 ± 0.1	C=CCN1CC(=O)N2[C@@H](Cc3ccc(O)cc3)C(=O)N(Cc3ccc(Cl)c(Cl)c3)C[C@@H]2N1C(=O)NCc1ccccc1 [Compound 180]	–

Structure (SMILES)	GI50 (HCT116 cells; HCT-116, 48 h) [µM]	GI50 (SW480 cells; SW480, 48 h) [µM]	IC50 [1] [µM]	other results
C[C@H](c1ccc(F)c(N(C)C)c1)N1C[C@H]2N(C(=O)CN(C)N2C(=O)NCc2ccccc2)[C@@H](Cc2ccc(O)cc2)C1=O [Compound 37]	9.2 ± 0.9	10.4 ± 0.8	–	–
C=CCN1CC(=O)N2[C@@H](Cc3ccc(OP(=O)(O)O)cc3)C(=O)N(Cc3ccc4c(c3)OCCO4)C[C@@H]2N1C(=O)NCc1ccccc1 [Compound 212]	–	–	1.3 ± 0.3	–
